For experiment [1], the target named is T1, PPARG/RXRA LBD heterodimer (Homo sapiens, UniProt P37231).
T1 construct: His-TEV-Q203-Y477; Uniprot ID P37231-2; made in house; host or cells: E. coli
T1 sequence (P37231 203-477 isoform P37231-2): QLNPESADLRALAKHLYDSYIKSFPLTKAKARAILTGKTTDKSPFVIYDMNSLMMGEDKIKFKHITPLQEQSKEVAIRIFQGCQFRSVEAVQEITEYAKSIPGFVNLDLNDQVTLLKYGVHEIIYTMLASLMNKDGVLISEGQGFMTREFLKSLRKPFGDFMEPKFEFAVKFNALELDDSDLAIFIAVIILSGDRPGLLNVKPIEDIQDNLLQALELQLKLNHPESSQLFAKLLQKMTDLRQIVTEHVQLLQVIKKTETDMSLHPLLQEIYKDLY
T1 sequence (P19793 228-462 partner limits assumed): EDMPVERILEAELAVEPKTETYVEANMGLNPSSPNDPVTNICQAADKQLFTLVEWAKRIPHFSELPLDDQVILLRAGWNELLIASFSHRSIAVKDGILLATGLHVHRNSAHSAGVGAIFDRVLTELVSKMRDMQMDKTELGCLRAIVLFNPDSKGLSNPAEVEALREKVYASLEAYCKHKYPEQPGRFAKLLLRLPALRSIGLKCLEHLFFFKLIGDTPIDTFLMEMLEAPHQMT
Nature of the experiment: PPARγ-MED1 blockade assay (TR-FRET, biotinylated MED1 LxxLL peptide). The note with it: WT PPARG LBD/WT RXRA LBD, 80 nM Rosiglitazone, 3 hours. It counts as biochemical. Summed up: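 TR-FRET measuring biotinylated MED1 LxxLL peptide association with 2 nM each His-PPARG LBD (Q203-Y477) and Flag-RXRA LBD (E228-T462), E. coli expressed. Read after 3 h incubation; ratios normalized to DMSO (0%) and GW9662 minimum (100%) for IC50 and maximal MED1 repulsion.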

The target of experiment [2] is T2, PPARG/RXRA LBD heterodimer (Homo sapiens, UniProt P37231).
T2 construct: His-TEV-Q203-Y477; Uniprot ID P37231-2; made in house; host or cells: E. coli
Nature of the experiment: PPARγ-NCOR1 recruitment assay (TR-FRET, biotinylated NCOR1 ID2 peptide). It counts as biochemical. Particulars: 80 nM Rosiglitazone, 3 hours, read-out: PPARG-NCOR recruitment assay EC50. The method in brief:
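2 nM each of E. coli-expressed PPARG LBD (Q203-Y477) and RXRA LBD (WT or S427F, E228-T462) with biotinylated NCOR1 ID2 peptide, incubated 3 h; TR-FRET read at Ex/Em 615/665. Ratios normalized to DMSO (0%) and T0070907 maximum (100%) for EC50 and maximal recruitment.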
T2 sequence (O75376 2251-2273 partner, one chain of several): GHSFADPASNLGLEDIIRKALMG

The test system of experiment [3] is ANGPTL4, a PPARG target gene, in HT1197 (RXRA S427F mutation) cells. Description: Bladder cancer pharmacodynamic assay, HT1197 cell assay (qPCR of ANGPTL4). It counts as cell-based. The note with it: Homo sapiens, 24 hours; for inhibition at 0.1 µM: 100 nM compound, relative to DMSO control. Summed up:
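5637 (PPARG amplified) and HT1197 (RXRA S427F) cells treated 24 h with PPARG inverse agonists. FABP4 and ANGPTL4 expression measured by qPCR, normalised to TBP, and reported relative to DMSO control by ΔΔCt.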
(In general: In qPCR the cycle at which signal appears reflects the starting amount.)

Experiment [4] relates to FABP4, a PPARG target gene, in 5637 (PPARG amplified) cells. Description: Bladder cancer pharmacodynamic assay, 5637 cell assay (qPCR of FABP4). It counts as cell-based. Particulars: 5637 cells, 24 hours, 100 nM compound, relative to DMSO control. On the procedure: Bladder Cancer Pharmacodynamic Assay
5637 (PPARG amplified) and HT1197 (RXRA S427F mutation) cells were used for assessment of modulation of PPARG target genes using quantitative PCR. Cells were treated for 24 hours with PPARG inverse agonists prior to analysis of FABP4 (IDT, Cat: Hs.PT 58.20106818) and ANGPTL4 (IDT, Cat: Hs.PT 58.25480012) expression, with expression of the housekeeping gene TBP (IDT, Cat: Hs.PT 58v.39858774) used to normalize expression across samples. Quantitative PCR was performed using an ABI QuantStudio 7 Flex Reaction system. Data were analyzed and reported relative to DMSO control using the comparative Ct method (ΔΔCt).

In general, EC50 refers to the concentration needed to bring the measured effect to its halfway point. By inhibition is commonly meant the change of the read-out against control, counted positive when it falls. With `N#Cc1ccc(Cl)c(-c2cc(=O)c3c(F)cc(F)cc3[nH]2)c1` [Example 1, 4-chloro-3-(5,7-difluoro-4-oxo-1,4-dihydroquinolin-2-yl)benzonitrile], the results for the half-maximal effective concentration (EC50) in experiment [1], in experiment [2] and in experiment [3] (ANGPTL4 expression) were 0.1 to 1 µM, 0.1 to 1 µM and 0.005 µM, respectively. For the same compound, the inhibition at 0.1 µM in experiment [3] was 88%; in experiment [4], 95%.

`N#Cc1ccc(Cl)c(-c2cc(=O)c3cc(Cl)c(Cl)cc3[nH]2)c1` [Example 2, 4-chloro-3-(6,7-dichloro-4-oxo-1,4-dihydroquinolin-2-yl)benzonitrile]: the concentration for a half-maximal effect (EC50) in experiment [1] and in experiment [2] was 0.1 to 1 µM in each case. For the same compound, the figures for the inhibition at 0.1 µM in experiment [3] and in experiment [4] were 83% and 93%, respectively.

`N#Cc1ccc(Br)c(-c2cc(=O)c3c(F)cc(F)cc3[nH]2)c1` [Example 4, 4-bromo-3-(5,7-difluoro-4-oxo-1,4-dihydroquinolin-2-yl)benzonitrile]: the EC50 in experiment [1] and in experiment [2] was 0.01 to 0.1 µM throughout. The inhibition at 0.1 µM in experiment [3] was 90%; in experiment [4] it was 94%.

Regarding `N#Cc1ccc(Cl)c(-c2cc(=O)c3cc(F)c(F)cc3[nH]2)c1` [Example 5, 4-chloro-3-(6,7-difluoro-4-oxo-1H-quinolin-2-yl)benzonitrile], the concentration for a half-maximal effect (EC50) in experiment [1] and in experiment [2] was 1 to 10 µM in each case. The inhibition at 0.1 µM in experiment [3] worked out at 86%; in experiment [4], 90%.

`N#Cc1ccc(Br)c(-c2cc(=O)c3cc(F)c(F)cc3[nH]2)c1` [Example 6, 4-bromo-3-(6,7-difluoro-4-oxo-1,4-dihydroquinolin-2-yl)benzonitrile]: the concentration giving a half-maximal response (EC50) in experiment [1] and in experiment [2] was 0.1 to 1 µM in each case. The inhibition at 0.1 µM in experiment [4] was determined as 93%.

For `N#Cc1ccc(Cl)c(-c2cc(=O)c3c(F)c(-c4ccc(C(F)(F)F)cc4)c(F)cc3[nH]2)c1` [Example 11, 4-chloro-3-(5,7-difluoro-4-oxo-6-(4-(trifluoromethyl)phenyl)-1,4-dihydroquinolin-2-yl)benzonitrile], the 50% effective concentration (EC50) in experiment [1] lay within 0.1 to 1 µM; in experiment [2] it was 0.01 to 0.1 µM. Besides, the inhibition at 0.1 µM was found to be 88% in experiment [3] and 94% in experiment [4].

Consider `CN(C)C(=O)[C@@H]1CCN(c2c(F)cc3[nH]c(-c4cc(C#N)ccc4Cl)cc(=O)c3c2F)C1` [Example 116, (R)-1-(2-(2-chloro-5-cyanophenyl)-5,7-difluoro-4-oxo-1,4-dihydroquinolin-6-yl)-N,N-dimethylpyrrolidine-3-carboxamide], for which the concentration for a half-maximal effect (EC50) lay within 1 to 10 µM in experiment [1] and 0.1 to 1 µM in experiment [2]. This compound came in with an inhibition at 0.1 µM in experiment [3] of 84%.

Regarding `CN(C)C(=O)[C@H]1CCN(c2c(F)cc3[nH]c(-c4cc(C#N)ccc4Cl)cc(=O)c3c2F)C1` [Example 117, (S)-1-(2-(2-chloro-5-cyanophenyl)-5,7-difluoro-4-oxo-1,4-dihydroquinolin-6-yl)-N,N-dimethylpyrrolidine-3-carboxamide], the 50% effective concentration (EC50) in experiment [1] and in experiment [2] was 1 to 10 µM in each case. This compound registered an inhibition at 0.1 µM in experiment [3] of 79%.

Values taken from patent publication US20240166624A1, “PPARG INVERSE AGONISTS AND USES THEREOF” (Flare Therapeutics Inc., priority 2021, published 2024).
